The species entered for assay [1] is Mus musculus. Kind of assay: Orexigenic activity in H1RKO mouse. Format: functional, organism-based.
Assay [2] deals with T1, Leptin receptor (Homo sapiens) (UniProt P48357).
T1 sequence (whole entry): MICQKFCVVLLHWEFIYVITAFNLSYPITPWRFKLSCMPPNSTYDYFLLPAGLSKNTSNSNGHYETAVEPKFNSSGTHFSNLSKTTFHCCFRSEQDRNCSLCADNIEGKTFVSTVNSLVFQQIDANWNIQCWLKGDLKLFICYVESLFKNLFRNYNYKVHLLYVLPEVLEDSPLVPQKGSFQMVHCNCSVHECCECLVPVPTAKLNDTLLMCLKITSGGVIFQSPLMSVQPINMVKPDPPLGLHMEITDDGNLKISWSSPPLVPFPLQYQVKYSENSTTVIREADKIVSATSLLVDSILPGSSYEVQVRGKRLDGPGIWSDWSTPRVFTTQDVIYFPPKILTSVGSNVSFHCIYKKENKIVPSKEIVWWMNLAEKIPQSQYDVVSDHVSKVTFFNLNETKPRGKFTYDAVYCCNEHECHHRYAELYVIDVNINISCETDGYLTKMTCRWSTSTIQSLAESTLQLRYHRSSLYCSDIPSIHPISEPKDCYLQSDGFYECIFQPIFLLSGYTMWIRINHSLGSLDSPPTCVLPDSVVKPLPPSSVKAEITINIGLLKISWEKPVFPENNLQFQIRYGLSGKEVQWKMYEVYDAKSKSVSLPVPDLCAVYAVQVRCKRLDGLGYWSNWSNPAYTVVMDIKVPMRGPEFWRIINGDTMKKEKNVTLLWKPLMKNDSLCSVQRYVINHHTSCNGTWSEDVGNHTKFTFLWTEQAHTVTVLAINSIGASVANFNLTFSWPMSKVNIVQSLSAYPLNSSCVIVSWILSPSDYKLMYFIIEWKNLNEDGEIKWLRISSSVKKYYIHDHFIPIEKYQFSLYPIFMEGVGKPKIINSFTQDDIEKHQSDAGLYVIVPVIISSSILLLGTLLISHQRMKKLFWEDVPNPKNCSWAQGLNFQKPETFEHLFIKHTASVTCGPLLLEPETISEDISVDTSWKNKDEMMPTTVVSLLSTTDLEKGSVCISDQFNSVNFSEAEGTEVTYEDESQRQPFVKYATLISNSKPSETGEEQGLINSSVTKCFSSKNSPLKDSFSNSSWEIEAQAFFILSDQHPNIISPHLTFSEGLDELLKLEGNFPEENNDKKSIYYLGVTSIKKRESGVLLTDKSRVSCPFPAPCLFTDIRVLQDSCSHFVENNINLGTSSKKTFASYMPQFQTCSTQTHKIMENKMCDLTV
The assay can be described thus: Binding affinity to leptin receptor at 100 nM.

Assay [3] in a line: Binding affinity to alphaMSH receptor at 100 nM.
A short description of assay [4]: Binding affinity to alphaMSH receptor at 10 nM.
Assay [5] concerns the target T2, Neuropeptide Y receptor type 1 (Homo sapiens) (UniProt P25929).
T2 sequence (whole entry): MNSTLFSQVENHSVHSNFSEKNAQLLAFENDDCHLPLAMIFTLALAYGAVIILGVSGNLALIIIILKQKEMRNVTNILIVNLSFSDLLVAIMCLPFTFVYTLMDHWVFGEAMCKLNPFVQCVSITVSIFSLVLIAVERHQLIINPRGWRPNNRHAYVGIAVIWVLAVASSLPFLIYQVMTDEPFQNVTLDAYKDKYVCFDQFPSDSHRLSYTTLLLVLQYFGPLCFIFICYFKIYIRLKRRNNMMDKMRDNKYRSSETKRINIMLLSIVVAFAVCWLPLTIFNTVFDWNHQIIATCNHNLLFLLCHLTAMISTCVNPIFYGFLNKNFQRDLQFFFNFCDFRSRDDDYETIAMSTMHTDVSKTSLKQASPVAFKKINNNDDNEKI
Kind of assay: Binding affinity to neuropeptide Y receptor at 10 nM.

A further assay has as its system Hypothalamus. Kind of assay: Increase in phospho-AMPK levels in H1RKO mouse hyphalamic slices at 500 nM after 30 mins by Western blotting. The assay is classed as functional, tissue-based. (In general: A western blot detects proteins with antibodies after separation by electrophoresis.)
Assay [6] addresses T1, Leptin receptor (Homo sapiens). Kind of assay: Binding affinity to leptin receptor at 10 nM.
The target in assay [7] is T2, Neuropeptide Y receptor type 1 (Homo sapiens). The assay can be described thus: Binding affinity to neuropeptide Y receptor at 100 nM.
Assay [8] relates to Mus musculus. The assay can be described thus: Increase in phospho-AMPK levels in intact H1RKO mouse hypothalamus at 3 mg/kg, ip after 3 hrs by Western blotting. The assay is classed as functional, organism-based. Also noted: dose 3 mg/kg.
Assay [9] has as its system Mus musculus. Kind of assay: Increase in phospho-AMPK level in paraventricular hyphalamic nuclei intact H1RKO mouse at 3 mg/kg, ip after 3 hrs by immunohistochemistry. The assay is classed as functional, organism-based. On the set-up: dose 3 mg/kg.
The target of a further assay is Histamine H1 receptor (Rattus norvegicus, UniProt P31390). Kind of assay: biochemical.
Assay [10] concerns Mus musculus. The assay can be described thus: Increase in phospho-AMPK level in paraventricular hyphalamic nuclei intact H1RKO mouse at 5 mg/kg after 3 hrs by immunohistochemistry. On the set-up: dose 5 mg/kg. The assay is classed as functional, organism-based.
The test system of assay [11] is Mus musculus. Kind of assay: Increase in phospho-AMPK in H1R knockout mouse at 3 mg/kg by immunohistochemistry. The assay is classed as functional, organism-based. On the set-up: dose 3 mg/kg.
The species named for assay [12] is Mus musculus. The assay can be described thus: Reversal of leptin-induced reduction in hyphalamic phospho-AMPK level in H1RKO mouse at 50 nM after 30 mins by Western blotting. Format: functional, organism-based.
For assay [13], the system named is Mus musculus. The assay can be described thus: Increase in phospho-AMPK level in paraventricular hyphalamic nuclei intact H1RKO mouse at 1 mg/kg after 3 hrs by immunohistochemistry. On the set-up: dose 1 mg/kg. The assay is classed as functional, organism-based.
For assay [14], the system named is Mus musculus. Kind of assay: Reversal of leptin-induced reduction in hyphalamic phospho-AMPK in H1RKO mouse at 5 mg/kg after 3 hrs by Western blotting. Format: functional, organism-based. Also noted: dose 5 mg/kg.
Assay [15] concerns Mus musculus. The assay can be described thus: Increase in phospho-AMPK level in arcuate hyphalamic nuclei intact H1RKO mouse at 5 mg/kg after 3 hrs by immunohistochemistry. The assay is classed as functional, organism-based. On the set-up: dose 5 mg/kg.
Assay [16] concerns Mus musculus. Kind of assay: Increase in phospho-AMPK levels in intact H1RKO mouse liver at 1 mg/kg, ip after 3 hrs by Western blotting. The assay is classed as functional, organism-based. On the set-up: dose 1 mg/kg.
The test system of assay [17] is Mus musculus. Kind of assay: Increase in alpha-2AMPK levels in intact H1RKO mouse cerebellum at 5 mg/kg after 3 hrs. Format: functional, organism-based. On the set-up: dose 5 mg/kg.
In assay [18] the test system is Mus musculus. The assay can be described thus: Increase in alpha-2AMPK levels in intact H1RKO mouse hypothalamus at 1 mg/kg after 3 hrs. On the set-up: dose 1 mg/kg. The assay is classed as functional, organism-based.
Assay [19] concerns Mus musculus. Kind of assay: Increase in alpha-2AMPK levels in intact H1RKO mouse cerebral cortex at 1 mg/kg after 3 hrs. The assay is classed as functional, organism-based. Also noted: dose 1 mg/kg.
The test system of assay [20] is Mus musculus. Kind of assay: Increase in phospho-AMPK level in arcuate hyphalamic nuclei intact H1RKO mouse at 1 mg/kg after 3 hrs by immunohistochemistry. The assay is classed as functional, organism-based. Also noted: dose 1 mg/kg.
Assay [21] is filed under the species Mus musculus. The assay can be described thus: Reversal of histamine-induced reduction in hyphalamic phospho-AMPK level in H1RKO mouse at 200 nM after 30 mins by Western blotting. The assay is classed as functional, organism-based.
The test system of assay [22] is Mus musculus. The assay can be described thus: Increase in phospho-AMPK levels in intact H1RKO mouse cerebellum at 1 mg/kg, ip after 3 hrs by Western blotting. Format: functional, organism-based. Also noted: dose 1 mg/kg.
Assay [23] concerns Mus musculus. The assay can be described thus: Increase in alpha-2AMPK levels in intact H1RKO mouse cerebellum at 1 mg/kg after 3 hrs. Format: functional, organism-based. Also noted: dose 1 mg/kg.
The species entered for assay [24] is Mus musculus. The assay can be described thus: Reversal of insulin-induced reduction in hyphalamic phospho-AMPK level in H1RKO mouse at 50 nM after 30 mins by Western blotting. The assay is classed as functional, organism-based.
Assay [25] relates to Mus musculus. The assay can be described thus: Increase in phospho-AMPK levels in intact H1RKO mouse hypothalamus at 1 mg/kg after 3 hrs. The assay is classed as functional, organism-based. On the set-up: dose 1 mg/kg.
In assay [26] the test system is Mus musculus. Kind of assay: Increase in cortical alpha-2AMPK levels in intact H1RKO mouse at 5 mg/kg after 3 hrs. The assay is classed as functional.
Assay [27] relates to Mus musculus. Kind of assay: Reversal of leptin-induced reduction in hyphalamic alpha-2AMPK activity in H1RKO mouse at 5 mg/kg. Format: functional, organism-based. On the set-up: dose 5 mg/kg.

SMILES strings stand for the structures. Active and inactive are the calls of the source. The rule behind the calls is not given here.

Sequence of Histamine H1 receptor (P31390 whole entry): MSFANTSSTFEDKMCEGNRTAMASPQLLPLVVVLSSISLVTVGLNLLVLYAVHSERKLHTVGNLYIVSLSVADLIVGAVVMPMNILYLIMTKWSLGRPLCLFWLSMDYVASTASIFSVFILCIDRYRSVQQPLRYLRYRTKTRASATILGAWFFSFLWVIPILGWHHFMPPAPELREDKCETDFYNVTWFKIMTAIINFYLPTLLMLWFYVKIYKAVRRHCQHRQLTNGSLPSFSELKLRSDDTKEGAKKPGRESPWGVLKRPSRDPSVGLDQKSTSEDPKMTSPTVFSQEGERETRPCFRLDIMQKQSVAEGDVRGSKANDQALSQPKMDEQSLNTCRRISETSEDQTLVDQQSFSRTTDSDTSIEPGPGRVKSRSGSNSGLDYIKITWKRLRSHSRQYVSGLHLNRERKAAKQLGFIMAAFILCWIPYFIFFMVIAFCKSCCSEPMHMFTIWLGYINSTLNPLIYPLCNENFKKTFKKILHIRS
Description for Histamine H1 receptor: Displacement of [3H]mepyramine from H1R in rat brain

With `Cc1cc2c(s1)Nc1ccccc1N=C2N1CCN(C)CC1`, the outcome in the assay listed under Mus musculus [1] and in the assay with Hypothalamus was Active. Also, the outcome in [2], in [3], in assay [4], in assay [5], in assay [6] and in assay [7] was inactive.

Regarding `Cc1ccc(/C(=C\CN2CCCC2)c2ccccn2)cc1`, the outcome with Mus musculus [8] and with Hypothalamus was Active.

Turning to `Cc1nc2n(c(=O)c1CCN1CCC(c3noc4cc(F)ccc34)CC1)CCCC2`, the outcome with Hypothalamus was inactive.

`O=C(CCCN1CCC(O)(c2ccc(Cl)cc2)CC1)c1ccc(F)cc1`: the outcome in the assay filed under Mus musculus [1] and with Hypothalamus was inactive.

For the compound `O=C1Cc2cc(CCN3CCN(c4nsc5ccccc45)CC3)c(Cl)cc2N1`, the result in the assay on Mus musculus [9], in the assay filed under Mus musculus [1] and in the assay with Hypothalamus was inactive.

As to `OCCOCCN1CCN(C2=Nc3ccccc3Sc3ccccc32)CC1`, the outcome in the assay listed under Mus musculus [1] and in the assay with Hypothalamus was Active.

For `O=C1CCc2ccc(OCCCCN3CCN(c4cccc(Cl)c4Cl)CC3)cc2N1` [ARIPIPRAZOLE], the outcome in the assay listed under Mus musculus [1] and with Hypothalamus was inactive. In addition, on Histamine H1 receptor, the IC50 (as a rule, the midpoint of a concentration-inhibition curve) was greater than 3 µM.

As for `CN1CCN(C2=Nc3cc(Cl)ccc3Nc3ccccc32)CC1` [CLOZAPINE], the result with Mus musculus [10], in the assay listed under Mus musculus [12], in the assay with Mus musculus [13], in the assay with Mus musculus [14], in the assay on Mus musculus [15] and in the assay listed under Mus musculus [1] was Active. Moreover, the result in the assay with Mus musculus [18], in the assay on Mus musculus [20], in the assay listed under Mus musculus [21], in the assay with Hypothalamus, in the assay listed under Mus musculus [24] and in the assay with Mus musculus [25] was Active. In the assay with Mus musculus [27], the result was Active. Moreover, the result (with Mus musculus [11]; in assay [2]; in the assay on Mus musculus [16]; in the assay with Mus musculus [17]; in assay [3]; in assay [4]) was inactive. In addition, the outcome (with Mus musculus [19]; in assay [5]; in the assay on Mus musculus [22]; in assay [6]; with Mus musculus [23]; in [7]) was inactive. The same compound registered an Activity in the assay with Mus musculus [26] of 20%.
